Patent US10202415B1, “Method of synthesizing of 3-oxolupenal nanoparticles” (KING SAUD UNIVERSITY, priority 2017, dated 2019)

Assays:
Test in all cases: Antimicrobial activity, agar diffusion technique
Type in all cases: cell-based
[1] = test system: Streptococcus pyogenes (RCMB 010015)
[2] = test system: Staphylococcus epidermidis (RCMB 010024)
[3] = test system: Staphylococcus aureus (RCMB 010027)
[4] = test system: Geotricum candidum (RCMB 05097)
[5] = test system: Absidia corymbifera (RCMB 02564)
[6] = test system: Candida albicans (RCMB 05036)
[7] = test system: Salmonella enteritidis(RCMB 010084)
[8] = test system: Proteous vulgaris (RCMB 010085)
[9] = test system: Klebsiella pneumoniae (RCMB 0010093)

Question: `CC1(C)S[C@@H]2[C@H](NC(=O)[C@H](N)c3ccccc3)C(=O)N2[C@H]1C(=O)O` [Ampicillin] was tested. Which “Zone of Inhibition (±S.D.)” value [1] did it give?
Answer: Its value is 26.3 ± 0.34.

Question: And the “Zone of Inhibition (±S.D.)” value [2]?
Answer: The value was 25.0 ± 0.18.

Question: And the “Zone of Inhibition (±S.D.)” value [3]?
Answer: Its value is 27.3 ± 0.14.

Question: With `C[C@@H]1[C@H](O)[C@@H](C)/C=C/C=C/C=C/C=C/C=C/C=C/C=C/[C@H](O[C@@H]2O[C@H](C)[C@@H](O)[C@H](N)[C@@H]2O)C[C@@H]2O[C@](O)(C[C@@H](O)C[C@@H](O)[C@H](O)CC[C@@H](O)C[C@@H](O)CC(=O)O[C@H]1C)C[C@H](O)[C@H]2C(=O)O` [Amphotericin B] as the compound, how does the “Zone of Inhibition (±S.D.)” value [4] read?
Answer: Its value is 27.0 ± 0.20.

Question: And the “Zone of Inhibition (±S.D.)” value [5]?
Answer: Its value is 23.0 ± 0.10.

Question: And the “Zone of Inhibition (±S.D.)” value [6]?
Answer: Its value is 25.7 ± 0.10.

Question: Which “Zone of Inhibition (±S.D.)” value [7] does the source give for Gentamycin here?
Answer: Its value is 25.2 ± 0.18.

Question: And the “Zone of Inhibition (±S.D.)” value [8]?
Answer: The value was 23.4 ± 0.30.

Question: And the “Zone of Inhibition (±S.D.)” value [9]?
Answer: The value was 26.4 ± 0.15.
